Counter-ions that a name gives are not always drawn.

The target in this test is T1, TLR7/NFKb HEK cells (Homo sapiens, UniProt Q9NYK1).
T1 construct: expressed in transfected cells; host or cells: HEK cells (TLR7/NFKb reporter line)
T1 sequence (Q9NYK1 27-1049): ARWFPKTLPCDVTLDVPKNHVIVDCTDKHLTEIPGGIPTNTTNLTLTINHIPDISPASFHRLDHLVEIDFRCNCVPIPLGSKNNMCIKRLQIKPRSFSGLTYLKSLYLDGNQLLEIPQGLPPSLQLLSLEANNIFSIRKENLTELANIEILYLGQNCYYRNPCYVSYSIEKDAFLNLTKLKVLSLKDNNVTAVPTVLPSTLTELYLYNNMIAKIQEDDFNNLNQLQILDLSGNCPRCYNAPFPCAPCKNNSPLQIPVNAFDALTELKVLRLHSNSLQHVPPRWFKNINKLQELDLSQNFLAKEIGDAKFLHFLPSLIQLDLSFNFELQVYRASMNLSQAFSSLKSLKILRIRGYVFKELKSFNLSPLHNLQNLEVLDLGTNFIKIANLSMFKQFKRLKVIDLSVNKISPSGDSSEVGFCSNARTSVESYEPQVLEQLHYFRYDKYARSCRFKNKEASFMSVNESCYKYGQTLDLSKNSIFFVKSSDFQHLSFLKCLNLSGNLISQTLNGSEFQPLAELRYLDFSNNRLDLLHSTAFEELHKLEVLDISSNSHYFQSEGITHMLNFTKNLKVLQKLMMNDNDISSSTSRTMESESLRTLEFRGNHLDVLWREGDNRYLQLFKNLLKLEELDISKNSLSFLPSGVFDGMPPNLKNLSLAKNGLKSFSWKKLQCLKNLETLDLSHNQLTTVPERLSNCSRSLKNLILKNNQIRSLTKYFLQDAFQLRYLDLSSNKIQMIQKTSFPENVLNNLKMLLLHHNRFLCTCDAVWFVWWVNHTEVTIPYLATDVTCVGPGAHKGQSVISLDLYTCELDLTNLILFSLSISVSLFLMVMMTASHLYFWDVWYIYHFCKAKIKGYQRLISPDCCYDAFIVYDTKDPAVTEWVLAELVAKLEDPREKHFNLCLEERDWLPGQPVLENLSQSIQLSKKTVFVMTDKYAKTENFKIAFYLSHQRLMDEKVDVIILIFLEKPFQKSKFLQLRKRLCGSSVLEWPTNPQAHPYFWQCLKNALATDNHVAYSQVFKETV
The test can be described thus: HEK Cell Assay (TLR7/NFKb reporter, Steady-Glo luciferase readout). The class given is cell-based. The settings on record: 30 min compound preincubation, then R*48 agonist for 5 hours, read-out: Potency. Put shortly:
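Steady-Glo luminescence after 5 h stimulation with R*48 agonist, following 30 min compound preincubation. Assay run in HEK cells carrying a TLR7/NFKb luciferase reporter, plated at 5000 cells/well and grown 24 h at 37° C (10% CO2) before treatment.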
As for `N#Cc1ccc(N2C[C@H](NC(=O)C3CCN(C4CC4)CC3)C[C@H](C(F)(F)F)C2)c2cccnc12` [Compound 578, 1-Cyclopropyl-piperidine-4-carboxylic acid [(3R,5S)-1-(8-cyano-quinolin-5-yl)-5-trifluoromethyl-piperidin-3-yl]-amide], the IC50 is less than 1000 nM.

On to `CNCC(=O)N[C@@H]1C[C@H](C)CN(c2ccnc3nccnc23)C1` [Compound 29, N-((3R,5S)-5-methyl-1-(pyrido[2,3-b]pyrazin-8-yl)piperidin-3-yl)-2-(methylamino)acetamide], for which the IC50 is more than 10000 nM.

As to `N#Cc1ccc(N2CCC(CNC(=O)CN3CCC3)CC2)c2cccnc12` [Compound 417, 2-Azetidin-1-yl-N-[1-(8-cyano-quinolin-5-yl)-piperidin-4-ylmethyl]-acetamide], the IC50 is less than 1000 nM.

On to `CC(C(=O)N[C@@H]1C[C@H](C)CN(c2ccc(C#N)c3nccnc23)C1)N1CC(O)C1` (stereo partly drawn) [Compound 271], for which the IC50 is less than 1000 nM.

For `C[C@H]1C[C@@H](NC(=O)[C@@H](N)Cc2cccnc2)CN(c2ccnc3nccnc23)C1` [Compound 118, (2S)-2-amino-N-[(3R,5S)-5-methyl-1-[pyrido[2,3-b]pyrazin-8-yl]piperidin-3-yl]-3-(pyridin-3-yl)propanamide], the IC50 fell in the range of 1000 to 10000 nM.

Regarding `CC(C)C(C)C(=O)N[C@@H]1C[C@H](C)CN(c2ccc(C#N)c3nccnc23)C1` (stereo partly drawn) [Compound 167, N-[(3R,5S)-1-(8-cyanoquinoxalin-5-yl)-5-methylpiperidin-3-yl]-2,3-dimethylbutanamide], the IC50 was less than 1000 nM.

For the compound `C[C@@H]1C[C@H](CN2CCC(N3CCOCC3)CC2)CN(c2ccc(C(F)(F)F)c3ncccc23)C1` (relative stereo) [Compound 535, cis-5-[3-Methyl-5-(4-morpholin-4-yl-piperidin-1-ylmethyl)-piperidin-1-yl]-8-trifluoromethyl-quinoline], the IC50 was less than 1000 nM.

For `C[C@@H]1CN(c2ccnc3nccnc23)C[C@H](CN2CCC(N3CCOCC3)CC2)O1` [Compound 60, (2R,6S)-2-methyl-6-((4-morpholinopiperidin-1-yl)methyl)-4-(pyrido[2,3-b]pyrazin-8-yl)morpholine], the IC50 was 1000 to 10000 nM.

Take `C[C@H]1C[C@@H](NC(=O)CC2CC2(F)F)CN(c2ccc(C(F)F)c3ncccc23)C1` (stereo partly drawn) [Compound 310, 2-(2,2-difluorocyclopropyl)-N-[(3R,5S)-1-[8-(difluoromethyl)quinolin-5-yl]-5-methylpiperidin-3-yl]acetamide]: the IC50 was less than 1000 nM.

`CCN(CC)C1CCN(CC2CCN(c3ccnc4ccccc34)CC2)CC1` [Compound 5, N,N-diethyl-1-((1-(quinolin-4-yl)piperidin-4-yl)methyl)piperidin-4-amine]: the IC50 lay in the range of 1000 to 10000 nM.

For `C[C@H]1C[C@@H](NC(=O)[C@H](C)N(C)C)CN(c2ccc(C(F)(F)F)c3ncccc23)C1` [Compound 526, (S)-2-Dimethylamino-N-[(3R,5S)-5-methyl-1-(8-trifluoromethyl-quinolin-5-yl)-piperidin-3-yl]-propionamide], the IC50 was less than 1000 nM.

With `CC(C)(C)CC(=O)NCC1CCN(c2ccnc3nccnc23)CC1` [Compound 399, 3,3-Dimethyl-N-(1-pyrido[2,3-b]pyrazin-8-yl-piperidin-4-ylmethyl)-butyramide], the IC50 was more than 10000 nM.

In the case of `C[C@H]1C[C@@H](NC(=O)CC2CCN(C)CC2)CN(c2ccc(C(F)F)c3ncccc23)C1` [Compound 316, N-[(3R,5S)-1-[8-(difluoromethyl)quinolin-5-yl]-5-methylpiperidin-3-yl]-2-(1-methylpiperidin-4-yl)acetamide], the IC50 was less than 1000 nM.

On to `C[C@H]1C[C@@H](NC(=O)CC2CC2(F)F)CN(c2ccc(C(F)(F)F)c3ncccc23)C1` (stereo partly drawn) [Compound 286, 2-(2,2-difluorocyclopropyl)-N-[(3R,5S)-5-methyl-1-[8-(trifluoromethyl)quinolin-5-yl]piperidin-3-yl]acetamide], for which the IC50 was less than 1000 nM.

As for `CN(C)C(=O)CCC(=O)N1CCN(c2ccc(C#N)c3nccnc23)CC1` [Compound 454, 4-[4-(8-Cyano-quinoxalin-5-yl)-piperazin-1-yl]-N,N-dimethyl-4-oxo-butyramide], the IC50 is 1000 to 10000 nM.

`C[C@H]1C[C@@H](NC(=O)Cc2cn(C)cn2)CN(c2ccc(C#N)c3nccnc23)C1` [Compound 132, N-[(3R,5S)-1-(8-cyanoquinoxalin-5-yl)-5-methylpiperidin-3-yl]-2-(1-methyl-1H-imidazol-4-yl)acetamide]: the IC50 was less than 1000 nM.

On to `CN1CCCC1CNC(=O)C1CCN(c2ccc(C#N)c3ncccc23)CC1` (stereo not drawn) [Compound 433, 1-(8-Cyano-quinolin-5-yl)-piperidine-4-carboxylic Acid (1-methyl-pyrrolidin-2-ylmethyl)-amide], for which the IC50 was less than 1000 nM.

With `C[C@H]1C[C@@H](NC(=O)C(N)C(F)(F)F)CN(c2ccc(C#N)c3nccnc23)C1` (single isomer, unassigned) [Compound 112, hydrochloride], the IC50 was 1000 to 10000 nM.

Turning to `CC(C)(C)CC(=O)N[C@H]1C[C@@H](C(F)(F)F)CN(c2ccnc3nccnc23)C1` (relative stereo) [Compound 86, cis-3,3-dimethyl-N-[1-[pyrido[2,3-b]pyrazin-8-yl]-5-(trifluoromethyl)piperidin-3-yl]butanamide], the IC50 was more than 10000 nM.

Turning to `Cc1ncc(N2C[C@@H](C)C[C@@H](NC(=O)CCC(=O)N3CCC3)C2)c2cccnc12` [Compound 566, 4-Azetidin-1-yl-N-[(3R,5S)-5-methyl-1-(8-methyl-[1,7]naphthyridin-5-yl)-piperidin-3-yl]-4-oxo-butyramide], the IC50 is 1000 to 10000 nM.

For `C[C@H]1C[C@@H](NC(=O)C(N)C(F)(F)F)CN(c2ccc(C(F)F)c3ncccc23)C1` (single isomer, unassigned) [Compound 208], the IC50 was less than 1000 nM.

Take `C[C@H]1C[C@@H](NC(=O)CO)CN(c2ccc(C(F)(F)F)c3nccnc23)C1` [Compound 250, 2-hydroxy-N-[(3R,5S)-5-methyl-1-[8-(trifluoromethyl)quinoxalin-5-yl]piperidin-3-yl]acetamide]: the IC50 is less than 1000 nM.

In the case of `C[C@@H]1CN(c2ccc(C#N)c3nccnc23)C[C@H](C(=O)NC2CCN(C)CC2)O1` [Compound 468, (2R,6R)-4-(8-cyanoquinoxalin-5-yl)-6-methyl-N-(1-methylpiperidin-4-yl)morpholine-2-carboxamide], the IC50 was less than 1000 nM.

In the case of `C[C@H]1C[C@@H](NC(=O)CN2CC(O)C2)CN(c2ccc(C(F)(F)F)c3nccnc23)C1` [Compound 296, 2-(3-hydroxyazetidin-1-yl)-N-[(3R,5S)-5-methyl-1-[8-(trifluoromethyl)quinoxalin-5-yl]piperidin-3-yl]acetamide], the IC50 is less than 1000 nM.

For `C[C@H]1C[C@@H](NC(=O)CC(C)(C)C)CN(c2ccc(C(F)(F)F)c3ncccc23)C1` [Compound 195, 3,3-dimethyl-N-[(3R,5S)-5-methyl-1-[8-(trifluoromethyl)quinolin-5-yl]piperidin-3-yl]butanamide], the IC50 is less than 1000 nM.

With `CC1CC(CN2CCN(C)CC2)CN(c2ccc(C(F)(F)F)c3ncccc23)C1` (single isomer, unassigned) [Compound 534, trans-5-[3-Methyl-5-(4-methyl-piperazin-1-ylmethyl)-piperidin-1-yl]-8-trifluoromethyl-quinoline], the IC50 is 1000 to 10000 nM.

In the case of `C[C@H]1C[C@@H](NC(=O)CC(C)(C)CN)CN(c2ccc(C#N)c3nccnc23)C1` [Compound 277, 4-amino-N-[(3R,5S)-1-(8-cyanoquinoxalin-5-yl)-5-methylpiperidin-3-yl]-3,3-dimethylbutanamide], the IC50 is less than 1000 nM.

For the compound `C[C@H]1C[C@@H](NC(C)(C)CO)CN(c2ccc(C(F)(F)F)c3ncccc23)C1` [Compound 242, 2-methyl-2-[[(3R,5S)-5-methyl-1-[8-(trifluoromethyl)quinolin-5-yl]piperidin-3-yl]amino]propan-1-ol], the IC50 is 1000 to 10000 nM.

Take `C[C@H]1C[C@@H](NC(=O)CN(C)C)CN(c2ccc(C(F)(F)F)c3nccnc23)C1` [Compound 254, 2-(dimethylamino)-N-[(3R,5S)-5-methyl-1-[8-(trifluoromethyl)quinoxalin-5-yl]piperidin-3-yl]acetamide]: the IC50 was less than 1000 nM.

With `CCN(CC)CCC(=O)NC1CCN(c2ccnc3nccnc23)CC1` [Compound 396, 3-Diethylamino-N-(1-pyrido[2,3-b]pyrazin-8-yl-piperidin-4-yl)-propionamide], the IC50 was more than 10000 nM.

(Values after patent publication US10947213B1 (Merck Patent GmbH, priority 2015, dated 2021).)
